Legend:
Type in all cases: biochemical
Settings in all cases: pH 8.0, 37° C., mean value of 2 experiments
[1] = target: Serratia sp. strain MK1 phospholipase A1 mutant TA3 (substitutions at positions 32, 39, 65, 105, 153, 158 and 303 with P, A, L, V, I, I and E); SEQ ID NO: 6; DNA (Serratia sp. MK1, UniProt Q9X9D8, E105V/K303E/M153I/Q32P/S158I/S65L/T39A); test: kinetic parameters of phospholipase A1 mutant TA3 (pH-stat titration of fatty acid released from phosphatidylcholine)
Description: (§1) The amino acid sequence of TA3 was deduced from the nucleotide sequence of TA3 comprising thermostable phospholipase A1 mutant gene and set forth in SEQ ID NO: 6, and the amino acid sequence of TA13 was deduced from the nucleotide sequence of TA13 and set forth in SEQ ID NO: 7. When the amino acid sequences of thermostable phopholipase mutants, TA3 and TA13 were compared with that of naturally occurring phospholipase A1, TA3 and TA13 were identified as novel proteins with 7 and 6 amino acid substitutions, respectively. Phospholipase TA3 has been identified to have amino acid substitutions at positions of 32, 39, 65, 105, 153, 158 and 303 with P, A, L, V, I, I, and E and phospholipase TA13 has been identified to have amino acid substitutions at positions of 36, 102, 154, 158, 281 and 291 with Q, N, K, W, Q and N, respectively.
(§2) Catalytic activity of phospholipase A1 was determined using pH-stat titration method. The amount of released fatty acid from enzyme reaction was measured at 37° C. in a pH-stat (Radiometer Copenhagen, France) equipped with autotiter and autoburette. To a substrate solution containing 3.4 mM phosphatidylcholine, 10 mM CaCl2 and 2.6 mM deoxycholic acid, sonicated for emulsification, was added phospholipase A1 enzyme solution and then the amount of released fatty acid was measured. One unit is defined as the amount of enzyme that releases 1μ mole of free fatty acid per minute from phosphatidylcholine at 37° C. and pH 8.0 in a pH-stat.

[2] = target: Serratia sp. strain MK1 phospholipase A1 mutant TA13 (substitutions at positions 36, 102, 154, 158, 281 and 291 with Q, N, K, W, Q and N); SEQ ID NO: 7; DNA SEQ (Serratia sp. MK1, UniProt Q9X9D8, E35Q/K290N/L157W/L280Q/M153K/S101N); test: kinetic parameters of phospholipase A1 mutant TA13 (pH-stat titration of fatty acid released from phosphatidylcholine)
Chain of Serratia sp. strain MK1 phospholipase A1 mutant TA13 (substitutions at positions 36, 102, 154, 158, 281 and 291 with Q, N, K, W, Q and N); SEQ ID NO: 7; DNA SEQ (Q9X9D8 entry or part of it E35Q/S101N/M153K/L157W/L280Q/K290N): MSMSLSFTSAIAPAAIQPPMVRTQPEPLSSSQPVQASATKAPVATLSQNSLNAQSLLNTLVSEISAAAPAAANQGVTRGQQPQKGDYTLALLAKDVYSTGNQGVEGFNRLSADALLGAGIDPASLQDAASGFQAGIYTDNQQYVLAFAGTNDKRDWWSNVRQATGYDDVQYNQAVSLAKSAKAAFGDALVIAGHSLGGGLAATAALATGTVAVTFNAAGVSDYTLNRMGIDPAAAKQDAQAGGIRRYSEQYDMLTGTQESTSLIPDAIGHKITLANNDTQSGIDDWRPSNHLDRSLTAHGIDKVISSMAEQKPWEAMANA
Description: as §1, §2

[3] = target: Serratia sp. strain MK1 phospholipase A1 (PLA1), wild-type (naturally occurring; gene SEQ ID NO: 1) (Serratia sp. MK1, UniProt Q9X9D8); test: kinetic parameters of phospholipase A1 (pH-stat titration of fatty acid released from phosphatidylcholine)
Chain of Serratia sp. strain MK1 phospholipase A1 (PLA1), wild-type (naturally occurring; gene SEQ ID NO: 1) (Q9X9D8 entry or part of it): as the sequence (Q9X9D8 entry or part of it E35Q/S101N/M153K/L157W/L280Q/K290N) above, with Q35E, N101S, K153M, W157L, Q280L, N290K counted along it
Protocol: as §2

Chain of Serratia sp. strain MK1 phospholipase A1 mutant TA3 (substitutions at positions 32, 39, 65, 105, 153, 158 and 303 with P, A, L, V, I, I and E); SEQ ID NO: 6; DNA (Q9X9D8 entry or part of it Q32P/T39A/S65L/E105V/M153I/S158I/K303E): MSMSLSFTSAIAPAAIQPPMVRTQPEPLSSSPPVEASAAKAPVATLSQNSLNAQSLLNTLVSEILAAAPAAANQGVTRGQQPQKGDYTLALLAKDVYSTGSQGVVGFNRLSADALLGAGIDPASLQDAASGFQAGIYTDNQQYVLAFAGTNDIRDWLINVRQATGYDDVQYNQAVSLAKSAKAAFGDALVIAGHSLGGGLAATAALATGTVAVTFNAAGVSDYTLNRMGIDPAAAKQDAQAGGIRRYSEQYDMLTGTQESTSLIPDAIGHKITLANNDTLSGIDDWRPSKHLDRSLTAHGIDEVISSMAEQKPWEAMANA

phosphatidylcholine was tested. Which Kcat [1] did it give?
The Kcat was 10.92 S^−1.

What about the Kcat/Km [1] of the same substance?
Its Kcat/Km is 0.104 S^−1 μM.

And the Km [1]?
The Km was 105 µM.

And the Kcat [2]?
Its Kcat is 13.67 S^−1.

And the Kcat/Km [2]?
The Kcat/Km was 0.114 S^−1 μM.

What about the Km [2] of the same substance?
The Km was 120 µM.

And the Kcat [3]?
The Kcat was 11.23 S^−1.

What about the Kcat/Km [3] of the same substance?
The Kcat/Km was 0.093 S^−1 μM.

And the Km [3]?
Its Km is 114 µM.

Source: patent US6610524B2, “Thermostable phospholipase A1 mutants and a process for preparing the same” (priority 2000, dated 2003)
